Data on 1 molecule can be found in paper PMC8892206, “An RRx-001 Analogue With Potent Anti-NLRP3 Inflammasome Activity but Without High-Energy Nitro Functional Groups” (Frontiers in Pharmacology, 2022).

The experiment deals with T1, NLRP3 (Homo sapiens, UniProt Q96P20).
T1 construct: purified human His-GFP-NLRP3; NACHT domain mapped by DARTS
Briefly: microscale thermophoresis with purified GFP-NLRP3; DARTS and C409A mutation support. It counts as binding.

T1 sequence (Q96P20 whole entry, the tested form may be a part): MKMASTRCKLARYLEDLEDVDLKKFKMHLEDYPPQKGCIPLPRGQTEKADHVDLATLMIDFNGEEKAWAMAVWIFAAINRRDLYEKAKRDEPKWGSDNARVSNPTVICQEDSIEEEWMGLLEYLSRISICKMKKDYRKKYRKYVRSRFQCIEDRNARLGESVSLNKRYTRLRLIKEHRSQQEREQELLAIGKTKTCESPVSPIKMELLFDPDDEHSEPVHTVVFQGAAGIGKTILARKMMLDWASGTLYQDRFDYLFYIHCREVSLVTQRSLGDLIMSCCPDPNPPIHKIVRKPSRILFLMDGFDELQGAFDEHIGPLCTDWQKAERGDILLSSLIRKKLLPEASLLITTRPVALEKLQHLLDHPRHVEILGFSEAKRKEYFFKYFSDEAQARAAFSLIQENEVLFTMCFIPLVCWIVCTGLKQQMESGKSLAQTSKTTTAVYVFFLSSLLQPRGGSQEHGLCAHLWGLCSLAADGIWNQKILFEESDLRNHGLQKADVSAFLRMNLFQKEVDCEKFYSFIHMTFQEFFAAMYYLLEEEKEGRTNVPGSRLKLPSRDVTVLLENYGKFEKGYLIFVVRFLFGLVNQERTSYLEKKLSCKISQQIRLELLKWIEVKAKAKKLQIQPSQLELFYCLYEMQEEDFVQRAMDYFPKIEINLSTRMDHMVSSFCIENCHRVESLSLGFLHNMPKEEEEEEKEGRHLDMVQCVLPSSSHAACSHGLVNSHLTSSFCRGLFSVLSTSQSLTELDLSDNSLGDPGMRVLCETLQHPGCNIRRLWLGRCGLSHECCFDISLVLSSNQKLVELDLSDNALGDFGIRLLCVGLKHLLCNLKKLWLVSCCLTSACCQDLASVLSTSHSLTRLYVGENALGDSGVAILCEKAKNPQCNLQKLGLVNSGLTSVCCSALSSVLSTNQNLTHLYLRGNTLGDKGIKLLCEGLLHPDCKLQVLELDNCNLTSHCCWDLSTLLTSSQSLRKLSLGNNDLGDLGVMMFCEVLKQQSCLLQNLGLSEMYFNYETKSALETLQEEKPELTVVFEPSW

As a reminder, the Kd is the constant that tells how readily two partners part at equilibrium. A high value points to a looser complex. In the case of `O=C(CBr)NCc1ccc(C(F)(F)F)cc1` [149-01], the Kd worked out at 48.2 nM.
